Measured values taken from patent US20250066347A1, “SUBSTITUTED THIAZOLIDINEDIONE DERIVATIVE COMPOUND, AND PHARMACEUTICAL COMPOSITION FOR PREVENTING OR TREATING CANCER, COMPRISING SAME” (MEDIFIC, INC., priority 2021, published 2025).
Where “and” joins values, the source holds several entries; their conditions need not be identical. Equal values may be shown once.

Experiments:
[1] = In vivo PK test, drug concentration in plasma after oral or intravenous administration; settings: mouse
Procedure: • Experimental Drug: Compound 11 • Excipient: 10% DMSO, 75% PEG400, 15% saline 1.2. Experimental system • mouse, CRljOri:CD1(ICR), SPF 6 weeks old (7 weeks old at the time of administration) 1.3. Administration route • oral administration (PO), intravenous administration (IV) 1.4. Administration method and number of administration
After obtaining the mouse, the mouse was acclimatized for 5 days, and used in the experiment. An administration dose was 25 mg/kg by oral administration and 5 mg/kg by intravenous administration. A dosage for each individual was calculated based on the weight after fasting (on the day of administration), and the drug was orally administered once to an oral administration (PO) group using a disposable syringe (1 mL) with a zonde for oral administration attached, and intravenously administered to the tail vein of an intravenous administration (IV) group using a disposable syringe (1 mL).
About 0.3 mL of blood was collected from a jugular vein with a 1 mL syringe (25G) treated with 3.8% sodium citrate (about 30˜40 μl), placed in one microtube (QSP, 1.5 mL), and centrifuged at 12,000 RPM/3 min to collect plasma. The plasma was frozen and stored at −80° C. until analysis, and all animals of a pharmacokinetic experiment group were euthanized after completing the blood collection.
580 μl of acetonitrile (including internal standard) was added to 20 μl of plasma/tissue, and centrifugation was performed at 4° C. at 15,000 rpm for 5 minutes with vortexing. A supernatant obtained after the centrifugation was analyzed with LC-MS/MS.
PK parameter was calculated as a non-compartmental analysis model, using a phoenix WinNonlin 6.4 version (Pharsight, USA) program.

[2] = system: HOG-GSC brain tumor stem cell line; test: In vivo efficacy evaluation, HOG-GSC orthotopic xenograft model; set-up: species or system BALB/c nude mouse; settings: 25 mg/kg/day oral, day 16 after tumor transplantation
Excerpt: First, HOG-GSC which is a brain tumor stem cell line was transplanted to a caudate putamen in the brain of a BALB/c nude mouse to establish am orthotropic xenograft model. After transplanting the brain tumor stem cells, the implementation compound of the present invention was orally administered from day 7 for 3 weeks with a schedule of 5 days of administration and 2 days of off medication, and only excipient was administration in the same manner to the control group. Thereafter, based on clinical findings resulting from the growth of the brain tumor in the animals, the survival period of the mouse was investigated, thereby confirming that the death of the animal due to a tumor was delayed by the administration of the implementation compound of the present invention. In addition, both the control mouse and the mouse to which the implementation compound of the present invention was administered were euthanized on day 16 after transplanting the tumor, their brain tissues were harvested, and the sizes of the brain tumor on the same date were compared.

[3] = system: HOG-GSC; test: Cell viability analysis depending on the concentration of Compound 11; assay type: cell-based; settings: 0.078-20 μM, 72 hours
Procedure: HOG-GSC which is a brain tumor stem cell was seeded on a 96-well plate at 5000 cells/well, treated with Compound 11 (Example 11) at concentrations of 20 μM, 10 μM, 5 μM, 2.5 μM, 1.25 μM, 0.625 μM, 0.312 μM, 0.156 μM, and 0.078 μM repeatedly 3 times after 24 hours, and treated with the same volume of DMSO as a control group repeatedly 3 times. After the treatment, cells were cultured for 72 hours in an incubator (ThermoFisher) at 37° C., 5% Co2. Thereafter, since there were many living cells in each well, the cell viability depending on the concentration of Compound 11 (Example 11) was compared using a cell viability assay kit (LPS solution) of which the color becomes darker with an increase in the number of cells. Further, absorbance at 450 nm was measured using a microplate reader (BioTek), and absorbance at each concentration was normalized based on the absorbance intensity of the control group of 1 and is shown in FIG. 4.

[4] = system: HOG-GSC cells; test: Comparison of cell viability in brain tumor stem cell (MTS assay); assay type: cell-based; settings: 72 hours, DMSO control = 1, value below 0.5 = viability decreased by 50% or more
Procedure: HOG-GSC cells which are brain tumor stem cells were treated with 11 compounds at 10 μM and DMSO as a control group, and the number of surviving cells after 72 hours was evaluated by MTS assay.
HOG-GSC which is a brain tumor stem cell was seeded on a 96-well plate at 5000 cells per well, and was cultured in an incubator (ThermoFisher) at 37° C. and 5% CO2 for 24 hours for stabilization of cells. Thereafter, it was treated with 11 compounds of the present invention at […] each, and treated with the same volume of DMSO as a control group as the volume of each compound. After treatment with the compound of the present invention and the control group, cells were cultured in an incubator at 37° C. and 5% CO2 for 72 hours. Thereafter, since there were many living cells in each well, cell viability was quantified using a cell viability assay kit (LPS solution) of which the color becomes darker with an increase in the number of cells. After treatment with the cell viability assay solution, a reaction was performed in an incubator at 37° C. and 5% CO2 for 3 hours to perform coloration, absorbance at 450 nm was measured using a microplate reader (BioTek), and an absorbance intensity of the control group was set to 1 and the absorbance of cells treated with each compound was normalized and is shown in FIG. 2.

[5] = CRljOri:CD1(ICR), 25 mg/kg oral administration, plasma

CC(C)(C)c1ccc(-c2cc(/C=C3\SC(=O)NC3=O)ccn2)cc1 [Compound 11, (Z)-5-((2-(4-(tert-butyl)phenyl)pyridin-4-yl)methylene)thiazolidine-2,4-dione]
bioavailability ([1]; CRljOri:CD1(ICR), plasma, 25 mg/kg oral compared with 5 mg/kg intravenous, read-out: bioavailability (BA)): 62.4% | AUC(0-t) [1, 5]: 39400 ng·h/mL | Cmax [1, 5]: 5040 ng/mL | Tmax [1, 5]: 1.6 h | half-life [1, 5]: 3.9 h | Drug concentration in plasma, Individual ([1]; intravenous 5 mg/kg, 0.08 hr, 5 mg/kg): 2800.0 ng/mL and 1900.0 ng/mL and 2700.0 ng/mL | Drug concentration in plasma, Individual ([1]; intravenous 5 mg/kg, 0.25 hr, 5 mg/kg): 2240.0 ng/mL and 2890.0 ng/mL and 2430.0 ng/mL | Drug concentration in plasma, Individual ([1]; intravenous 5 mg/kg, 0.5 hr, 5 mg/kg): 1890.0 ng/mL and 2360.0 ng/mL and 2000.0 ng/mL | Drug concentration in plasma, Individual ([1]; intravenous 5 mg/kg, 1 hr, 5 mg/kg): 1780.0 ng/mL and 2380.0 ng/mL and 1630.0 ng/mL | Drug concentration in plasma, Individual ([1]; intravenous 5 mg/kg, 2 hr, 5 mg/kg): 1420.0 ng/mL and 2240.0 ng/mL and 1480.0 ng/mL | Drug concentration in plasma, Individual ([1]; intravenous 5 mg/kg, 4 hr, 5 mg/kg): 1410.0 ng/mL and 1400.0 ng/mL and 1260.0 ng/mL | Drug concentration in plasma, Individual ([1]; intravenous 5 mg/kg, 6 hr, 5 mg/kg): 476.0 ng/mL and 491.0 ng/mL and 1080.0 ng/mL and 561.0 ng/mL | Drug concentration in plasma, Individual ([1]; intravenous 5 mg/kg, 8 hr, 5 mg/kg): 614.0 ng/mL and 618.0 ng/mL and 644.0 ng/mL | Drug concentration in plasma, Individual ([1]; intravenous 5 mg/kg, 24 hr, BQL = <1 ng/ml, ND = not detectable, 5 mg/kg): 1.7 ng/ml and BQL | Drug concentration in plasma, Individual ([1]; oral 25 mg/kg, 0.25 hr, 25 mg/kg): 3210.0 ng/mL and 2230.0 ng/mL and 4300.0 ng/mL and 2000.0 ng/mL | Drug concentration in plasma, Individual ([1]; oral 25 mg/kg, 0.5 hr, 25 mg/kg): 3590.0 ng/mL and 2340.0 ng/mL and 4750.0 ng/mL and 7010.0 ng/mL | Drug concentration in plasma, Individual ([1]; oral 25 mg/kg, 1 hr, 25 mg/kg): 4140.0 ng/mL and 2380.0 ng/mL and 2070.0 ng/mL and 6490.0 ng/mL | Drug concentration in plasma, Individual ([1]; oral 25 mg/kg, 2 hr, 25 mg/kg): 3270.0 ng/mL and 2030.0 ng/mL and 4100.0 ng/mL and 6070.0 ng/mL | Drug concentration in plasma, Individual ([1]; oral 25 mg/kg, 4 hr, 25 mg/kg): 2020.0 ng/mL and 4420.0 ng/mL and 2930.0 ng/mL and 4810.0 ng/mL | Drug concentration in plasma, Individual ([1]; oral 25 mg/kg, 6 hr, 25 mg/kg): 7260.0 ng/mL and 8180.0 ng/mL and 2630.0 ng/mL and 3680.0 ng/mL | Drug concentration in plasma, Individual ([1]; oral 25 mg/kg, 8 hr, 25 mg/kg): 4120.0 ng/mL and 4850.0 ng/mL and 7180.0 ng/mL | Drug concentration in plasma, Individual ([1]; oral 25 mg/kg, 24 hr, BQL = <1 ng/ml, 25 mg/kg): BQL and 2.5 ng/ml and 4.1 ng/ml | Tumor cross-sectional area/brain cross-sectional ratio, Average [2]: 0.02186 | Tumor cross-sectional area/brain cross-sectional ratio, individual [2]: 0.04373 and 0 | cell viability of HOG-GSC compared with DMSO control [3]: significantly decreased | concentration dependence of HOG-GSC cell viability [3]: decreased in proportion to the concentration | cell viability inhibition effect (normalized MTS value) [4]: significant cell viability inhibition effect
